This is an account of results in EPA's aquatic toxicity sets.

For this data set, the system named is Tetrahymena pyriformis. The data set is described as follows: 48 h IGC50 (-log10 mol/L); higher = more toxic.
With `O=C(CBr)c1cc2ccccc2oc1=O`, the “48 h IGC50 (-log10 mol/L)” value amounted to 5.66.

On to `CNc1ccc(C(=O)OC)cc1`, for which the “48 h IGC50 (-log10 mol/L)” value was 3.31.

As to `COc1ccc([N+](=O)[O-])cc1`, the “48 h IGC50 (-log10 mol/L)” value came out at 3.54.

As to `CCC[C@H](O)c1ccccc1`, the “48 h IGC50 (-log10 mol/L)” value amounted to 2.91.

For the compound `CC(C)CCOC(=O)c1ccc(O)cc1`, the “48 h IGC50 (-log10 mol/L)” value turned out to be 4.48.

Consider `C#CCOC(=O)C=C`, for which the “48 h IGC50 (-log10 mol/L)” value was 4.06.

On to `O=[N+]([O-])c1cccnc1Cl`, for which the “48 h IGC50 (-log10 mol/L)” value came out at 3.87.

Turning to `C#CCSc1ccccc1`, the “48 h IGC50 (-log10 mol/L)” value came out at 3.54.

With `Nc1ncc([N+](=O)[O-])cn1`, the “48 h IGC50 (-log10 mol/L)” value was 2.57.

As to `O=C(O)CCCCBr`, the “48 h IGC50 (-log10 mol/L)” value is 2.31.

Turning to `OC/C=C/c1ccccc1`, the “48 h IGC50 (-log10 mol/L)” value amounted to 2.92.

On to `CC(C)(O)c1ccccc1`, for which the “48 h IGC50 (-log10 mol/L)” value came out at 2.43.

For `CC(=O)CCc1ccc(O)cc1`, the “48 h IGC50 (-log10 mol/L)” value was 2.5.

As for `CC(C)(C)c1ccc(O)cc1`, the “48 h IGC50 (-log10 mol/L)” value was 3.91.

On to `N#CCCCBr`, for which the “48 h IGC50 (-log10 mol/L)” value worked out at 2.54.

In the case of `Oc1ccc(Br)cc1`, the “48 h IGC50 (-log10 mol/L)” value is 3.68.

Consider `CCOC(=O)C(Br)CBr` (stereo not drawn), for which the “48 h IGC50 (-log10 mol/L)” value was 5.21.

On to `CCOC(=O)C(NC(C)=O)C(=O)OCC`, for which the “48 h IGC50 (-log10 mol/L)” value came to 1.8.

Consider `O=[N+]([O-])c1ccccc1CO`, for which the “48 h IGC50 (-log10 mol/L)” value worked out at 2.85.

As to `C=CC(=O)OC`, the “48 h IGC50 (-log10 mol/L)” value stood at 3.55.

Turning to `O=C(O)c1cc(Cl)cc(Cl)c1`, the “48 h IGC50 (-log10 mol/L)” value amounted to 3.27.

For the compound `Oc1ccc(O)cc1`, the “48 h IGC50 (-log10 mol/L)” value amounted to 3.47.

For the compound `CC(C)CC(N)=O`, the “48 h IGC50 (-log10 mol/L)” value was determined as 1.34.

Turning to `CCCc1ccc(O)cc1`, the “48 h IGC50 (-log10 mol/L)” value was 3.64.

Turning to `N#Cc1ccncc1`, the “48 h IGC50 (-log10 mol/L)” value stood at 2.18.

Regarding `C/C=C/C(C)=O`, the “48 h IGC50 (-log10 mol/L)” value came to 3.54.

Consider `CC(C)(C)c1cc(N)cc(C(C)(C)C)c1`, for which the “48 h IGC50 (-log10 mol/L)” value came out at 4.44.

For `C/C(=N\O)C(=O)c1ccccc1`, the “48 h IGC50 (-log10 mol/L)” value turned out to be 2.96.

As to `CN(C)Cc1ccccc1`, the “48 h IGC50 (-log10 mol/L)” value is 3.12.

In the case of `O=[N+]([O-])c1cc(Cl)c(Cl)c([N+](=O)[O-])c1Cl`, the “48 h IGC50 (-log10 mol/L)” value worked out at 5.6.

In the case of `NC(N)=NC(N)=Nc1ccccc1`, the “48 h IGC50 (-log10 mol/L)” value is 2.61.

Regarding `O=C(O)CCCCCl`, the “48 h IGC50 (-log10 mol/L)” value came to 2.71.

Consider `Nc1cccc([N+](=O)[O-])c1`, for which the “48 h IGC50 (-log10 mol/L)” value was 3.03.

As for `NC(=O)c1ccc([N+](=O)[O-])cc1`, the “48 h IGC50 (-log10 mol/L)” value was determined as 3.18.

As to `CCC(O)Cc1ccccc1` (stereo not drawn), the “48 h IGC50 (-log10 mol/L)” value amounted to 2.84.

Regarding `C/C=C/C(=O)OC(C)CC` (stereo not drawn), the “48 h IGC50 (-log10 mol/L)” value was 2.58.

Turning to `C=CC(=O)CCCCC`, the “48 h IGC50 (-log10 mol/L)” value stood at 4.92.

Consider `CC/C=C/C(=O)O`, for which the “48 h IGC50 (-log10 mol/L)” value came to 2.72.

Regarding `CC=CC(=O)OCC(C)C`, the “48 h IGC50 (-log10 mol/L)” value stood at 2.66.

In the case of `c1ccc2ccccc2c1`, the “48 h IGC50 (-log10 mol/L)” value worked out at 2.88.

As for `CCOC(=O)C(Cl)C(=O)OCC`, the “48 h IGC50 (-log10 mol/L)” value was 3.63.

For `CC1CCC(=O)O1` (stereo not drawn), the “48 h IGC50 (-log10 mol/L)” value was determined as 1.43.

For `OCc1ccccc1I`, the “48 h IGC50 (-log10 mol/L)” value was found to be 3.33.

Consider `OC(CCl)CCl`, for which the “48 h IGC50 (-log10 mol/L)” value was 2.21.

As to `Cc1ccc(Cl)cc1N`, the “48 h IGC50 (-log10 mol/L)” value is 3.5.

For `CCCCCCC(=O)OC`, the “48 h IGC50 (-log10 mol/L)” value came out at 3.1.

Take `N#CCCc1ccccc1`: the “48 h IGC50 (-log10 mol/L)” value was 2.84.

In the case of `CC(=O)OCCCCCCl`, the “48 h IGC50 (-log10 mol/L)” value turned out to be 2.87.

In the case of `C#CC(O)C(C)CCC` (stereo not drawn), the “48 h IGC50 (-log10 mol/L)” value turned out to be 3.74.

Turning to `Cc1c(O)cccc1[N+](=O)[O-]`, the “48 h IGC50 (-log10 mol/L)” value came to 3.78.

`CCC/C=C/C(C)=O`: the “48 h IGC50 (-log10 mol/L)” value turned out to be 3.7.

With `CCCNC(N)=S`, the “48 h IGC50 (-log10 mol/L)” value amounted to 2.31.

Take `CC(C)(C)c1cc(O)cc(C(C)(C)C)c1`: the “48 h IGC50 (-log10 mol/L)” value was 4.64.

On to `C=CC(=O)CCC`, for which the “48 h IGC50 (-log10 mol/L)” value worked out at 4.66.

On to `CC(C#N)c1ccccc1` (stereo not drawn), for which the “48 h IGC50 (-log10 mol/L)” value is 3.01.

Turning to `OCCCCCc1ccccc1`, the “48 h IGC50 (-log10 mol/L)” value is 3.42.

In the case of `O=Cc1cc(O)ccc1O`, the “48 h IGC50 (-log10 mol/L)” value was found to be 3.28.

With `O=C/C=C/c1ccccc1`, the “48 h IGC50 (-log10 mol/L)” value stood at 3.68.

On to `CCc1cccc(CC)c1N`, for which the “48 h IGC50 (-log10 mol/L)” value was found to be 3.31.

For the compound `CCCC#CCCO`, the “48 h IGC50 (-log10 mol/L)” value turned out to be 2.68.

Consider `CCc1ccco1`, for which the “48 h IGC50 (-log10 mol/L)” value came out at 2.48.

Take `C=C(C)C(=O)OCCC`: the “48 h IGC50 (-log10 mol/L)” value worked out at 2.35.

`N#CCCBr`: the “48 h IGC50 (-log10 mol/L)” value was 2.5.

Consider `CCCC[N+](=O)[O-]`, for which the “48 h IGC50 (-log10 mol/L)” value is 2.31.

Consider `Cc1ccc(-c2ccccc2)cc1`, for which the “48 h IGC50 (-log10 mol/L)” value was 4.66.

Turning to `CCCC(C)C=O` (stereo not drawn), the “48 h IGC50 (-log10 mol/L)” value is 2.53.

As for `CCN(C)c1ccccc1`, the “48 h IGC50 (-log10 mol/L)” value turned out to be 3.29.

Take `CC(C)(C)C(=O)CCl`: the “48 h IGC50 (-log10 mol/L)” value came out at 4.27.

With `C#CC(=O)OCC`, the “48 h IGC50 (-log10 mol/L)” value is 4.7.

Regarding `O=C(Oc1ccccc1)c1ccc(O)cc1`, the “48 h IGC50 (-log10 mol/L)” value stood at 4.37.

For `O=C(O)CCCl`, the “48 h IGC50 (-log10 mol/L)” value is 2.67.

For the compound `NC(=O)c1ccc(N)cc1`, the “48 h IGC50 (-log10 mol/L)” value amounted to 2.09.

For the compound `CC(C)(C)c1ccc(N)cc1`, the “48 h IGC50 (-log10 mol/L)” value was 3.36.

For `COc1ccc(C(C)=O)cc1`, the “48 h IGC50 (-log10 mol/L)” value was 2.87.

On to `NC(=O)c1cccs1`, for which the “48 h IGC50 (-log10 mol/L)” value stood at 2.03.

On to `CCOC(=O)CCCCCC(=O)OCC`, for which the “48 h IGC50 (-log10 mol/L)” value stood at 3.41.

Take `CCOC(=O)C(C)Br` (stereo not drawn): the “48 h IGC50 (-log10 mol/L)” value amounted to 4.06.

For `CCCCS(=O)CCCC`, the “48 h IGC50 (-log10 mol/L)” value was found to be 2.74.

As to `O=Cc1cccc2ccccc12`, the “48 h IGC50 (-log10 mol/L)” value is 3.42.

As for `CCC(N)=O`, the “48 h IGC50 (-log10 mol/L)” value stood at 0.91.

Turning to `O=C1C=Cc2ccccc2C1=O`, the “48 h IGC50 (-log10 mol/L)” value is 6.2.

As for `O=[N+]([O-])c1ccccc1Cl`, the “48 h IGC50 (-log10 mol/L)” value was 3.68.

Regarding `O=[N+]([O-])c1cccnc1SCc1ccccc1`, the “48 h IGC50 (-log10 mol/L)” value was determined as 4.72.

As for `CCCCCCNC(N)=S`, the “48 h IGC50 (-log10 mol/L)” value was found to be 3.86.

As to `O=C(O)c1ccc(Cl)c(Cl)c1`, the “48 h IGC50 (-log10 mol/L)” value was determined as 3.31.

For `COc1cccc(C#N)c1`, the “48 h IGC50 (-log10 mol/L)” value is 3.01.

`Nc1cccc(I)c1`: the “48 h IGC50 (-log10 mol/L)” value amounted to 3.65.

On to `O=C(O)c1cc(Br)cc(Br)c1`, for which the “48 h IGC50 (-log10 mol/L)” value stood at 3.46.

For `CCCCCCCCCCOC(=O)CC#N`, the “48 h IGC50 (-log10 mol/L)” value was determined as 4.7.

`CCOC(=O)CCCl`: the “48 h IGC50 (-log10 mol/L)” value worked out at 2.5.

On to `Cc1cc(O)c(Cl)cc1C`, for which the “48 h IGC50 (-log10 mol/L)” value amounted to 3.69.

With `N#Cc1cccnc1`, the “48 h IGC50 (-log10 mol/L)” value was found to be 2.26.

As for `CC(C)(C)C#N`, the “48 h IGC50 (-log10 mol/L)” value was 1.68.

With `COC(=O)c1cccc(O)c1`, the “48 h IGC50 (-log10 mol/L)” value is 2.95.

With `CCC(=O)OCC(C)C`, the “48 h IGC50 (-log10 mol/L)” value amounted to 2.31.

As to `CC(C)N`, the “48 h IGC50 (-log10 mol/L)” value worked out at 2.14.

In the case of `Cc1cc(Br)cc(Cl)c1O`, the “48 h IGC50 (-log10 mol/L)” value worked out at 4.28.

For `O=C(CBr)Oc1ccc([N+](=O)[O-])cc1`, the “48 h IGC50 (-log10 mol/L)” value amounted to 4.81.
